In ChEMBL document CHEMBL3217489, “Minisci reactions: Versatile CH-functionalizations for medicinal chemists” (Medchemcomm, 2011):

Experiments:
Adenosine deaminase = target: T1, Adenosine deaminase (Bos taurus, UniProt P56658); experiment: Inhibition of calf duodenum adenosine deaminase
T1 sequence (P56658 whole entry): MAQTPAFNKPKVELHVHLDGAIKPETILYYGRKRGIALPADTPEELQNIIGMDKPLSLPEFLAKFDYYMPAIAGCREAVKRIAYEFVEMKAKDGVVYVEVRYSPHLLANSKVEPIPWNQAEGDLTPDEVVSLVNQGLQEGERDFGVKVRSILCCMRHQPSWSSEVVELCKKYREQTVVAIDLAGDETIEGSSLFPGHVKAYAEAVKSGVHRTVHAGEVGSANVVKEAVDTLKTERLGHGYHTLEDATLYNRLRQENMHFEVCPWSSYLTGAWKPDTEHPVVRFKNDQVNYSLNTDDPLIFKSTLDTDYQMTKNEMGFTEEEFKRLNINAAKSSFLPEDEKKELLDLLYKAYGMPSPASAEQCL

[1] = target: T2, Steroid 17-alpha-hydroxylase/17,20 lyase (Homo sapiens, UniProt P05093); experiment: Reversible inhibition of human cytochrome P450 17alpha
T2 sequence (P05093 whole entry): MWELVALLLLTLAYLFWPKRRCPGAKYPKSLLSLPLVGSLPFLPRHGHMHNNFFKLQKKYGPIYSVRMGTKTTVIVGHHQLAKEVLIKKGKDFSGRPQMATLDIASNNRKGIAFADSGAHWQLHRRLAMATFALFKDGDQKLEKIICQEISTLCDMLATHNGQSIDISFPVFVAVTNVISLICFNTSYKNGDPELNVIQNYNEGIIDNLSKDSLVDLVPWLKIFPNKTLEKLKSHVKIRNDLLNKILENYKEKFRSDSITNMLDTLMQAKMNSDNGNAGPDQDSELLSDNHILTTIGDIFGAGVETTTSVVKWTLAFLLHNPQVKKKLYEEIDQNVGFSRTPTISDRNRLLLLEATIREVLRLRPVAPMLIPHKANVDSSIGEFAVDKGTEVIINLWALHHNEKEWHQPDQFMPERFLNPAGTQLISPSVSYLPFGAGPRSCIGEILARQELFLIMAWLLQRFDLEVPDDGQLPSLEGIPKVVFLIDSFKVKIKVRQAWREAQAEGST

[2] = target: Neuronal acetylcholine receptor; alpha4/beta2 (Homo sapiens, UniProt P17787+P43681); experiment: Inhibition of alpha4beta2 nAChR (unknown origin); assay type: protein-complex assay
[3] = target: T2, Steroid 17-alpha-hydroxylase/17,20 lyase; experiment: Irreversible inhibition of human cytochrome P450 17alpha

Sequence of Neuronal acetylcholine receptor; alpha4/beta2 (P17787 whole entry): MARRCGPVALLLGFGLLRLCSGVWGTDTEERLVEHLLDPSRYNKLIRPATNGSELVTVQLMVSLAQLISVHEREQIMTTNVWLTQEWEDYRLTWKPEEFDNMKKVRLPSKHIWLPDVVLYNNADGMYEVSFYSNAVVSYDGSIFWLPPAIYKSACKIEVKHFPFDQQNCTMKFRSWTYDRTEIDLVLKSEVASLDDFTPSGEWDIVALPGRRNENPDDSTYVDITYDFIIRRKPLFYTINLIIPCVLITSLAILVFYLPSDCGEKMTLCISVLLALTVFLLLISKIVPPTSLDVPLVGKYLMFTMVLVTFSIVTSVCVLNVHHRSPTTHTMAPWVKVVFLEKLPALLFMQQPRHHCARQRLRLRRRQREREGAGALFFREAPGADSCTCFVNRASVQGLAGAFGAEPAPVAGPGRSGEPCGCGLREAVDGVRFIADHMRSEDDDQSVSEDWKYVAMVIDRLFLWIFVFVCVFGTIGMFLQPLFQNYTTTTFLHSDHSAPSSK
Sequence of Neuronal acetylcholine receptor; alpha4/beta2 (P43681 whole entry): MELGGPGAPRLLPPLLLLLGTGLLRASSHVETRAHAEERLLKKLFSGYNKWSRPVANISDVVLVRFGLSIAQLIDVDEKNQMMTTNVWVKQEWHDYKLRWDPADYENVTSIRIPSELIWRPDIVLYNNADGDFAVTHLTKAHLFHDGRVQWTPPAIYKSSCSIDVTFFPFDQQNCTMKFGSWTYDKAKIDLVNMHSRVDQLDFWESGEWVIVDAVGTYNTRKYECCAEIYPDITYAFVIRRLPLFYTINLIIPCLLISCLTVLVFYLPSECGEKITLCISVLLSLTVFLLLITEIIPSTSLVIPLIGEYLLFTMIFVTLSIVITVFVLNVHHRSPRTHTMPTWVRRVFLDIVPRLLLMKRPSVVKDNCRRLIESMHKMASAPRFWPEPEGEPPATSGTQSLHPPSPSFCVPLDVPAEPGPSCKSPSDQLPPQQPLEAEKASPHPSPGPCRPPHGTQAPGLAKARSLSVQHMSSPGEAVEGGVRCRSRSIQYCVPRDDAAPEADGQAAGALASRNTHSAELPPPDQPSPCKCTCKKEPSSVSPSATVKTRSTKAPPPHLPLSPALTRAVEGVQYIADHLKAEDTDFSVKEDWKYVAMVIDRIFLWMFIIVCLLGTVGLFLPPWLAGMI

OCc1ncnc2c1ncn2[C@@H]1O[C@H](CO)[C@@H](O)[C@H]1O
Ki (Adenosine deaminase): 9.4 µM

C[C@]12CC[C@H]3[C@@H](CC=C4C[C@@H](O)CC[C@@]43C)[C@@H]1CC[C@H]2c1ccncc1
IC50 [1]: 27 nM

Clc1ccc2c(n1)CC1CNCC2C1 (racemic)
Ki [2]: 3.5 nM

Clc1cc2c(cn1)C1CNCC(C2)C1 (racemic)
Ki [2]: 0.5 nM

OCC1NC=Nc2c1ncn2[C@@H]1O[C@H](CO)[C@@H](O)[C@H]1O (single isomer, unassigned; diastereomer 1)
Ki (Adenosine deaminase): 0.76 µM

OCC1NC=Nc2c1ncn2[C@@H]1O[C@H](CO)[C@@H](O)[C@H]1O (single isomer, unassigned; diastereomer 2)
Ki (Adenosine deaminase): 12.5 µM

C[C@]12CC[C@H](O)CC1=CC[C@@H]1[C@@H]2CC[C@]2(C)C(c3cccnc3)=CC[C@@H]12 [ABIRATERONE]
IC50 [3]: 5 nM

OC[C@H]1O[C@@H](n2cnc3cncnc32)[C@H](O)[C@@H]1O [NEBULARINE]
Ki (Adenosine deaminase): 9.3 µM
